ChEMBL document CHEMBL4813981, “Synthesis and in vitro antibacterial activity of new aminothiazole-oximepiperidone cephalosporins” (2021)

Tests used:
Acinetobacter baumannii [1] = experiment: Antibacterial activity against Carbapenem- resistant Acinetobacter baumannii 17-8 assessed as reduction in bacterial growth; format: functional
Klebsiella pneumoniae [2] = experiment: Antibacterial activity against Carbapenem- resistant Klebsiella pneumoniae KR 15-11 assessed as reduction in bacterial growth; format: functional
Enterobacter cloacae [3] = experiment: Antibacterial activity against Enterobacter cloacae 17-4 assessed as reduction in bacterial growth; format: functional
Acinetobacter baumannii [4] = experiment: Antibacterial activity against Acinetobacter baumannii NCTC 13304 assessed as reduction in bacterial growth; format: functional
Escherichia coli [5] = experiment: Antibacterial activity against ESBLs positive Carbapenem-sensitive Escherichia coli 17-18 assessed as reduction in bacterial growth; format: functional
Klebsiella pneumoniae [6] = experiment: Antibacterial activity against Carbapenem- sensitive Klebsiella pneumoniae 17-8 overexpressing extended spectrum beta-lactamases assessed as reduction in bacterial growth; format: functional
Escherichia coli [7] = experiment: Bactericidal activity against ESBLs positive carbapenem-sensitive Escherichia coli 17-18 assessed as reduction in bacterial growth in the presence of avibactam; format: functional
Acinetobacter baumannii [8] = experiment: Antibacterial activity against Carbapenem- resistant Acinetobacter baumannii 17-12 assessed as reduction in bacterial growth; format: functional
Escherichia coli [9] = experiment: Antibacterial activity against ESBLs positive Carbapenem-sensitive Escherichia coli 17-5 assessed as reduction in bacterial growth; format: functional
Pseudomonas aeruginosa [10] = experiment: Antibacterial activity against Carbapenem- sensitive Pseudomonas aeruginosa 17-22 assessed as reduction in bacterial growth; format: functional
Klebsiella aerogenes [11] = experiment: Antibacterial activity against Enterobacter aerogenes 17-5 assessed as reduction in bacterial growth; format: functional
Escherichia coli [12] = experiment: Antibacterial activity against ESBLs negative Carbapenem-sensitive Escherichia coli 17-7 assessed as reduction in bacterial growth; format: functional
Klebsiella pneumoniae [13] = experiment: Antibacterial activity against Carbapenem- sensitive Klebsiella pneumoniae 17-2 overexpressing extended spectrum beta-lactamases assessed as reduction in bacterial growth; format: functional
Pseudomonas aeruginosa [14] = experiment: Bactericidal activity against Carbapenem- resistant Pseudomonas aeruginosa 17-5 assessed as reduction in bacterial growth in the presence of avibactam; format: functional
Acinetobacter baumannii [15] = experiment: Antibacterial activity against Carbapenem- resistant Acinetobacter baumannii 17-13 assessed as reduction in bacterial growth; format: functional
Klebsiella aerogenes [16] = experiment: Antibacterial activity against Enterobacter aerogenes 15-6 assessed as reduction in bacterial growth; format: functional
Klebsiella pneumoniae [17] = experiment: Antibacterial activity against Carbapenem- sensitive Klebsiella pneumoniae 17-5 overexpressing extended spectrum beta-lactamases assessed as reduction in bacterial growth; format: functional
Klebsiella aerogenes [18] = experiment: Antibacterial activity against Enterobacter aerogenes 15-3 assessed as reduction in bacterial growth; format: functional
Klebsiella pneumoniae [19] = experiment: Antibacterial activity against Carbapenem- resistant Klebsiella pneumoniae KR 15-12 assessed as reduction in bacterial growth; format: functional
Klebsiella aerogenes [20] = experiment: Antibacterial activity against Enterobacter aerogenes 17-4 assessed as reduction in bacterial growth; format: functional
Pseudomonas aeruginosa [21] = experiment: Bactericidal activity against carbapenem-sensitive Pseudomonas aeruginosa 17-7 assessed as reduction in bacterial growth in the presence of avibactam; format: functional
Klebsiella aerogenes [22] = experiment: Antibacterial activity against Enterobacter aerogenes 15-5 assessed as reduction in bacterial growth in the presence of Avibactam; format: functional
Pseudomonas aeruginosa [23] = experiment: Antibacterial activity against Carbapenem- sensitive Pseudomonas aeruginosa 17-10 assessed as reduction in bacterial growth; format: functional
Klebsiella aerogenes [24] = experiment: Antibacterial activity against Enterobacter aerogenes 15-3 assessed as reduction in bacterial growth in the presence of Avibactam; format: functional
Klebsiella pneumoniae [25] = experiment: Antibacterial activity against ESBLs positive Carbapenem-sensitive Klebsiella pneumoniae 17-8 assessed as reduction in bacterial growth in the presence of Avibactam; format: functional
Klebsiella pneumoniae [26] = experiment: Antibacterial activity against Carbapenem- resistant Klebsiella pneumoniae KR 15-5 assessed as reduction in bacterial growth in the presence of Avibactam; format: functional
Acinetobacter baumannii [27] = experiment: Antibacterial activity against Carbapenem- resistant Acinetobacter baumannii 17-5 assessed as reduction in bacterial growth
Pseudomonas aeruginosa [28] = experiment: Bactericidal activity against carbapenem-sensitive Pseudomonas aeruginosa 17-29 assessed as reduction in bacterial growth; format: functional
Enterobacter cloacae [29] = experiment: Antibacterial activity against Enterobacter cloacae 17-8 assessed as reduction in bacterial growth; format: functional
Pseudomonas aeruginosa [30] = experiment: Antibacterial activity against Carbapenem- sensitive Pseudomonas aeruginosa 17-24 assessed as reduction in bacterial growth; format: functional
Acinetobacter baumannii [31] = experiment: Antibacterial activity against Carbapenem- resistant Acinetobacter baumannii 17-5 assessed as reduction in bacterial growth; format: functional
Klebsiella pneumoniae [32] = experiment: Antibacterial activity against Carbapenem- sensitive Klebsiella pneumoniae 17-7 overexpressing extended spectrum beta-lactamases assessed as reduction in bacterial growth; format: functional
Klebsiella pneumoniae [33] = experiment: Antibacterial activity against Klebsiella pneumoniae ATCC BAA-1705 assessed as reduction in bacterial growth; format: functional
Klebsiella pneumoniae [34] = experiment: Antibacterial activity against Carbapenem- resistant Klebsiella pneumoniae KR 15-4 assessed as reduction in bacterial growth; format: functional
Escherichia coli [35] = experiment: Antibacterial activity against ESBLs positive Carbapenem-sensitive Escherichia coli 17-17 assessed as reduction in bacterial growth; format: functional
Pseudomonas aeruginosa [36] = experiment: Bactericidal activity against carbapenem-sensitive Pseudomonas aeruginosa 17-9 assessed as reduction in bacterial growth in the presence of avibactam; format: functional
Enterobacter cloacae [37] = experiment: Antibacterial activity against Enterobacter cloacae 17-7 assessed as reduction in bacterial growth; format: functional
Klebsiella pneumoniae [38] = experiment: Antibacterial activity against ESBLs negative Carbapenem-sensitive Klebsiella pneumoniae 17-18 assessed as reduction in bacterial growth; format: functional
Klebsiella pneumoniae [39] = experiment: Antibacterial activity against Carbapenem- resistant Klebsiella pneumoniae KR 15-5 assessed as reduction in bacterial growth; format: functional
Klebsiella pneumoniae [40] = experiment: Antibacterial activity against Carbapenem- resistant Klebsiella pneumoniae KR 15-11 assessed as reduction in bacterial growth in the presence of Avibactam; format: functional
Klebsiella pneumoniae [41] = experiment: Antibacterial activity against ESBLs negative Carbapenem-sensitive Klebsiella pneumoniae 17-20 assessed as reduction in bacterial growth; format: functional
Enterobacter cloacae [42] = experiment: Bactericidal activity against Enterobacter cloacae 17-10 assessed as reduction in bacterial growth in the presence of avibactam; format: functional
Acinetobacter baumannii [43] = experiment: Antibacterial activity against Carbapenem- resistant Acinetobacter baumannii 17-10 assessed as reduction in bacterial growth; format: functional
Escherichia coli [44] = experiment: Antibacterial activity against Escherichia coli 15-4 overexpressing extended spectrum beta-lactamases assessed as reduction in bacterial growth; format: functional
Escherichia coli [45] = experiment: Antibacterial activity against ESBLs positive Carbapenem-sensitive Escherichia coli 17-11 assessed as reduction in bacterial growth; format: functional
Klebsiella pneumoniae [46] = experiment: Antibacterial activity against ESBLs negative Carbapenem-sensitive Klebsiella pneumoniae 17-17 assessed as reduction in bacterial growth; format: functional
Pseudomonas aeruginosa [47] = experiment: Antibacterial activity against Pseudomonas aeruginosa ATCC 27853 assessed as reduction in bacterial growth; format: functional
Klebsiella pneumoniae [48] = experiment: Bactericidal activity against Carbapenem- resistant Klebsiella pneumoniae KR 15-6 assessed as reduction in bacterial growth in the presence of avibactam; format: functional
Klebsiella pneumoniae [49] = experiment: Antibacterial activity against Carbapenem- sensitive Klebsiella pneumoniae 17-1 overexpressing extended spectrum beta-lactamases assessed as reduction in bacterial growth; format: functional
Klebsiella pneumoniae [50] = experiment: Antibacterial activity against Carbapenem- sensitive Klebsiella pneumoniae 17-13 overexpressing extended spectrum beta-lactamases assessed as reduction in bacterial growth; format: functional
Escherichia coli [51] = experiment: Antibacterial activity against Escherichia coli NCTC 13353 assessed as reduction in bacterial growth; format: functional
Enterobacter cloacae [52] = experiment: Antibacterial activity against Enterobacter cloacae 17-6 assessed as reduction in bacterial growth; format: functional

CC(C)(O/N=C(\C(=O)N[C@@H]1C(=O)N2C(C(=O)[O-])=C(C[n+]3ccccc3)CS[C@H]12)c1csc(N)n1)C(=O)O [CEFTAZIDIME]
16 µg/mL: MIC (Klebsiella aerogenes [11]) | MIC (Escherichia coli [44])
64 µg/mL: MIC (Acinetobacter baumannii [4]) | MIC (Acinetobacter baumannii [8]) | MIC (Klebsiella pneumoniae [19]) | MIC (Klebsiella pneumoniae [33]) | MIC (Klebsiella pneumoniae [49]) | MIC (Escherichia coli [51])
2 µg/mL: MIC (Escherichia coli [5]) | MIC (Klebsiella pneumoniae [13]) | MIC (Klebsiella pneumoniae [25]) | MIC (Klebsiella pneumoniae [26]) | MIC (Pseudomonas aeruginosa [30]) | MIC (Klebsiella pneumoniae [40]) | MBC (Klebsiella pneumoniae [48])
1 µg/mL: MIC (Klebsiella pneumoniae [17]) | MBC (Enterobacter cloacae [42]) | MIC (Pseudomonas aeruginosa [47])
0.25 µg/mL: MBC (Pseudomonas aeruginosa [21]) | MBC (Pseudomonas aeruginosa [36])
32 µg/mL: MIC (Escherichia coli [35]) | MIC (Acinetobacter baumannii [43]) | MIC (Escherichia coli [45])
8 µg/mL: MIC (Klebsiella aerogenes [16]) | MIC (Klebsiella aerogenes [20]) | MIC (Pseudomonas aeruginosa [23])
0.5 µg/mL: MIC (Enterobacter cloacae [3]) | MBC (Escherichia coli [7]) | MIC (Pseudomonas aeruginosa [10]) | MIC (Klebsiella aerogenes [22])
4 µg/mL: MIC (Escherichia coli [9]) | MIC (Klebsiella aerogenes [24]) | MBC (Pseudomonas aeruginosa [28]) | MIC (Klebsiella pneumoniae [50])
> 64 µg/mL: MIC (Acinetobacter baumannii [1]) | MIC (Klebsiella pneumoniae [2]) | MIC (Klebsiella pneumoniae [6]) | MIC (Acinetobacter baumannii [15]) | MIC (Klebsiella aerogenes [18]) | MIC (Acinetobacter baumannii [27]) | MIC (Acinetobacter baumannii [31]) | MIC (Klebsiella pneumoniae [32]) | MIC (Klebsiella pneumoniae [34]) | MIC (Enterobacter cloacae [37]) | MIC (Klebsiella pneumoniae [39])
0.125 µg/mL: MIC (Escherichia coli [12]) | MIC (Enterobacter cloacae [29]) | MIC (Klebsiella pneumoniae [38]) | MIC (Klebsiella pneumoniae [41]) | MIC (Klebsiella pneumoniae [46])
> 16 µg/mL: MBC (Pseudomonas aeruginosa [14])

Nc1nc(/C(=N/OCc2cc(=O)c(O)cn2O)C(=O)N[C@@H]2C(=O)N3C(C(=O)O)=CCS[C@H]23)cs1
2 µg/mL: MIC (Escherichia coli [12]) | MIC (Klebsiella pneumoniae [13]) | MIC (Pseudomonas aeruginosa [23]) | MIC (Klebsiella pneumoniae [26]) | MIC (Enterobacter cloacae [52])
16 µg/mL: MIC (Klebsiella aerogenes [16]) | MIC (Klebsiella aerogenes [24]) | MIC (Enterobacter cloacae [29])
> 64 µg/mL: MIC (Acinetobacter baumannii [1]) | MIC (Klebsiella pneumoniae [2]) | MIC (Acinetobacter baumannii [4]) | MIC (Klebsiella pneumoniae [6]) | MIC (Acinetobacter baumannii [8]) | MIC (Acinetobacter baumannii [15]) | MIC (Klebsiella aerogenes [18]) | MIC (Klebsiella pneumoniae [19]) | MIC (Acinetobacter baumannii [27]) | MIC (Acinetobacter baumannii [31]) | MIC (Klebsiella pneumoniae [32]) | MIC (Klebsiella pneumoniae [34]) | MIC (Escherichia coli [35]) | MIC (Enterobacter cloacae [37]) | MIC (Klebsiella pneumoniae [39]) | MIC (Acinetobacter baumannii [43]) | MIC (Escherichia coli [44]) | MIC (Escherichia coli [45]) | MIC (Escherichia coli [51])
32 µg/mL: MBC (Pseudomonas aeruginosa [14])
≤ 0.03 µg/mL: MIC (Klebsiella pneumoniae [38])
64 µg/mL: MIC (Escherichia coli [9]) | MIC (Klebsiella aerogenes [11]) | MIC (Klebsiella pneumoniae [33]) | MIC (Klebsiella pneumoniae [49])
4 µg/mL: MIC (Pseudomonas aeruginosa [30]) | MBC (Pseudomonas aeruginosa [36])
0.06 µg/mL: MIC (Klebsiella pneumoniae [41])
0.5 µg/mL: MIC (Klebsiella pneumoniae [25]) | MBC (Klebsiella pneumoniae [48])
8 µg/mL: MIC (Escherichia coli [5]) | MIC (Klebsiella pneumoniae [17]) | MIC (Klebsiella aerogenes [20]) | MBC (Pseudomonas aeruginosa [28])
1 µg/mL: MIC (Enterobacter cloacae [3]) | MBC (Escherichia coli [7]) | MIC (Pseudomonas aeruginosa [10]) | MIC (Klebsiella aerogenes [22]) | MIC (Klebsiella pneumoniae [40]) | MBC (Enterobacter cloacae [42]) | MIC (Pseudomonas aeruginosa [47]) | MIC (Klebsiella pneumoniae [50])
0.125 µg/mL: MIC (Klebsiella pneumoniae [46])
0.25 µg/mL: MBC (Pseudomonas aeruginosa [21])

C[C@@H](O)[C@H]1C(=O)N2C(C(=O)O)=C(S[C@@H]3CN[C@H](C(=O)N(C)C)C3)[C@H](C)[C@H]12 [MEROPENEM]
0.25 µg/mL: MIC (Pseudomonas aeruginosa [23]) | MIC (Enterobacter cloacae [37])
> 64 µg/mL: MIC (Klebsiella pneumoniae [34]) | MIC (Klebsiella pneumoniae [39])
0.06 µg/mL: MIC (Klebsiella aerogenes [16]) | MIC (Klebsiella pneumoniae [32]) | MIC (Klebsiella pneumoniae [49])
32 µg/mL: MIC (Acinetobacter baumannii [1]) | MIC (Klebsiella pneumoniae [2]) | MIC (Klebsiella pneumoniae [19]) | MIC (Klebsiella pneumoniae [33])
2 µg/mL: MIC (Pseudomonas aeruginosa [30])
0.125 µg/mL: MIC (Klebsiella pneumoniae [6]) | MIC (Klebsiella aerogenes [11]) | MIC (Klebsiella aerogenes [20])
4 µg/mL: MIC (Klebsiella aerogenes [18])
< 0.03 µg/mL: MIC (Enterobacter cloacae [3]) | MIC (Escherichia coli [5]) | MIC (Escherichia coli [9]) | MIC (Escherichia coli [12]) | MIC (Klebsiella pneumoniae [13]) | MIC (Klebsiella pneumoniae [17]) | MIC (Enterobacter cloacae [29]) | MIC (Escherichia coli [35]) | MIC (Enterobacter cloacae [52]) | MIC (Klebsiella pneumoniae [38]) | MIC (Klebsiella pneumoniae [41]) | MIC (Escherichia coli [45]) | MIC (Klebsiella pneumoniae [46]) | MIC (Klebsiella pneumoniae [50]) | MIC (Escherichia coli [51])
1 µg/mL: MIC (Pseudomonas aeruginosa [10]) | MIC (Pseudomonas aeruginosa [47])
16 µg/mL: MIC (Acinetobacter baumannii [4]) | MIC (Acinetobacter baumannii [8]) | MIC (Acinetobacter baumannii [43])
64 µg/mL: MIC (Acinetobacter baumannii [15]) | MIC (Acinetobacter baumannii [31])
